Source: patent publication US8835462B2, “Macrocyclic picolinamides as fungicides” (Dow AgroSciences LLC, priority 2012, dated 2014)
Like-named read-outs stand apart in the source and are kept apart here.

Tests used:
Format in all cases: in vivo
[1] = test system: Mycosphaerella graminicola; Anamorph: Septoria tritici; experiment: Leaf blotch of wheat (SEPTTR) fungicidal activity on wheat seedlings; conditions: Zymoseptoria tritici
Experimental: Evaluation of Fungicidal Activity: Leaf Blotch of Wheat (Mycosphaerella Graminicola; Anamorph: Septoria tritici; Bayer Code […]) Technical grades of materials were dissolved in acetone, which were then mixed with nine volumes of water containing 110 ppm Triton X-100. The fungicide solutions were applied onto wheat seedlings using an automated booth sprayer to run-off. All sprayed plants were allowed to air dry prior to further handling. Wheat plants (variety Yuma) were grown from seed in a greenhouse in 50% mineral soil/50% soil-less Metro mix until the first leaf was fully emerged, with 7-10 seedlings per pot. These plants were inoculated with an aqueous spore suspension of Septoria tritici either prior to or after fungicide treatments. After inoculation the plants were kept in 100% relative humidity (one day in a dark dew chamber followed by two to three days in a lighted dew chamber at 20° C.) to permit spores to germinate and infect the leaf. The plants were then transferred to a greenhouse set at 20° C. for disease to develop. When disease symptoms were fully expressed on the 1st leaves of untreated plants, infection levels were assessed on a scale of 0 to 100 percent disease severity. Percent disease control was calculated using the ratio of disease severity on treated plants relative to untreated plants.

Puccinia triticina [2] = experiment: Wheat brown rust (PUCCRT) fungicidal activity on wheat seedlings
Experimental: Technical grades of materials were dissolved in acetone, which were then mixed with nine volumes of water containing 110 ppm Triton X-100. The fungicide solutions were applied onto wheat seedlings using an automated booth sprayer to run-off. All sprayed plants were allowed to air dry prior to further handling. Wheat plants (variety Yuma) were grown from seed in a greenhouse in 50% mineral soil/50% soil-less Metro mix until the first leaf was fully emerged, with 7-10 seedlings per pot. These plants were inoculated with an aqueous spore suspension of Septoria tritici either prior to or after fungicide treatments. After inoculation the plants were kept in 100% relative humidity (one day in a dark dew chamber followed by two to three days in a lighted dew chamber at 20° C.) to permit spores to germinate and infect the leaf. The plants were then transferred to a greenhouse set at 20° C. for disease to develop. When disease symptoms were fully expressed on the 1st leaves of untreated plants, infection levels were assessed on a scale of 0 to 100 percent disease severity. Percent disease control was calculated using the ratio of disease severity on treated plants relative to untreated plants. Evaluation of Fungicidal Activity: Wheat Brown Rust (Puccinia triticina; Synonym: Puccinia recondita f. sp. tritici; Bayer Code PUCCRT) Wheat plants (variety Yuma) were grown from seed in a greenhouse in 50% mineral soil/50% soil-less Metro mix until the first leaf was fully emerged, with 7-10 seedlings per pot. These plants were inoculated with an aqueous spore suspension of Puccinia triticina either prior to or after fungicide treatments. After inoculation the plants were kept in a dark dew room at 22° C. with 100% relative humidity overnight to permit spores to germinate and infect the leaf. The plants were then transferred to a greenhouse set at 24° C. for disease to develop. Fungicide formulation, application and disease assessment followed the procedures as described in the Example A.

Puccinia triticina [3] = experiment: Fungicide mobility (dropline mobility test), wheat brown rust (PUCCRT); conditions: 1 ug/leaf, disease-free zone as percent of distance from marked line to leaf tip; for Dropline Mobility Test PUCCRT 1 DPM: 1 Day Protectant Mobility; for Dropline Mobility Test PUCCRT 3 DCM: 3 Day Curative Mobility
Experimental: Evaluation of Fungicide Mobility: Wheat Brown Rust (Puccinia Triticina; Synonym: Puccinia recondita f. sp. Tritici; Bayer Code PUCCRT):
“Yuma” wheat seedlings were used in the test. One mg of compound was dissolved in 9 μl of EC blank (emulsifiable concentrate) and 500 μl of acetone. Acetone was then evaporated overnight by leaving the vial open in a fume hood. Two milliliters of water containing 110 ppm Triton X-100 was added to each vial to prepare application solutions. A […] drop of formulated material was applied to a marked line on the adaxial surface 5 cm from the leaf tip of the primary leaves. The primary leaves were kept in a horizontal position. Each treatment had 6 replicates. Plants were inoculated with PUCCRT 1-day after (1DPM) or 3-day prior to (3DCM) compound applications. When rust was fully expressed on primary leaves on control plants, the zone of treated leaves that was disease-free in the acropetal direction was measured with a ruler and converted to percent of the distance from marked line to leaf tip.

[4] = 24 h, 1 Day Protectant, read-out: Disease Control SEPTTR 1 DP
[5] = 72 h, 3 Day Curative, read-out: Disease Control SEPTTR 3 DC
[6] = 24 h, 1 Day Protectant, read-out: Disease Control PUCCRT 1 DP
[7] = 72 h, 3 Day Curative, read-out: Disease Control PUCCRT 3 DC

Structure (SMILES) | pest or weed control at 100 ppm [1, 4] [%] | pest or weed control at 100 ppm [1, 5] [%] | pest or weed control at 100 ppm (Puccinia triticina [2]; [6]) [%] | pest or weed control at 100 ppm (Puccinia triticina [2]; [7]) [%] | Dropline Mobility Test PUCCRT 1 DPM (Puccinia triticina [3]) | Dropline Mobility Test PUCCRT 3 DCM (Puccinia triticina [3])
COC(=O)CCO[C@@H]1[C@@H](Cc2ccccc2)COC[C@H](NC(=O)c2nccc(OC)c2O)C(=O)O[C@H]1C [Compound 11] | 0 to 80 | 0 to 80 | 0 to 80 | 0 to 80 | – | –
COC(=O)CCO[C@@H]1[C@@H](Cc2ccccc2)COC[C@H](NC(=O)c2nccc(OC)c2OCOC(C)=O)C(=O)O[C@H]1C [Compound 12] | 0 to 80 | 0 to 80 | 80 to 100 | 0 to 80 | – | –
COc1ccnc(C(=O)N[C@H]2COC[C@H](Cc3ccccc3)[C@@H](OCCC(=O)N(C)C)[C@H](C)OC2=O)c1O [Compound 13] | 0 to 80 | 0 to 80 | – | 0 to 80 | – | –
COCCCO[C@@H]1[C@@H](Cc2ccccc2)COC[C@H](NC(=O)c2nccc(OC)c2O)C(=O)O[C@H]1C [Compound 14] | 80 to 100 | 0 to 80 | 80 to 100 | 80 to 100 | – | –
COc1ccnc(C(=O)N[C@H]2COC[C@H](Cc3ccccc3)[C@@H](OCCCC(F)(F)F)[C@H](C)OC2=O)c1O [Compound 18] | 80 to 100 | 80 to 100 | 80 to 100 | 80 to 100 | B (More than 0-Less than 80) | B (More than 0-Less than 80)
COc1ccnc(C(=O)N[C@H]2COC[C@H](Cc3ccccc3)[C@@H](OC/C=C/C(F)(F)F)[C@H](C)OC2=O)c1O [Compound 20] | 0 to 80 | 0 to 80 | 0 to 80 | 0 to 80 | B (More than 0-Less than 80) | –
CCCC(C)O[C@@H]1[C@@H](Cc2ccccc2)COC[C@H](NC(=O)c2nccc(OC)c2OCOC(C)=O)C(=O)O[C@H]1C (stereo partly shown) [Compound 24] | 80 to 100 | 80 to 100 | 80 to 100 | 80 to 100 | B (More than 0-Less than 80) | B (More than 0-Less than 80)
COc1ccnc(C(=O)N[C@H]2COC[C@H](Cc3ccccc3)[C@@H](OC/C=C/C(F)(F)F)[C@H](C)OC2=O)c1OCOC(C)=O [Compound 25] | 80 to 100 | 80 to 100 | 80 to 100 | 80 to 100 | B (More than 0-Less than 80) | –
COC(=O)/C=C/O[C@@H]1[C@@H](Cc2ccccc2)COC[C@H](NC(=O)c2nccc(OC)c2O)C(=O)O[C@H]1C [Compound 27] | 0 to 80 | 0 to 80 | 80 to 100 | 0 to 80 | B (More than 0-Less than 80) | B (More than 0-Less than 80)
COc1ccnc(C(=O)N[C@H]2COC[C@H](Cc3ccccc3)[C@@H](OCCCc3ccccc3)[C@H](C)OC2=O)c1O [Compound 28] | 0 to 80 | 0 to 80 | 80 to 100 | 80 to 100 | B (More than 0-Less than 80) | –
COc1ccnc(C(=O)N[C@H]2COC[C@H](Cc3ccccc3)[C@@H](OC3CCCCC3)[C@H](C)OC2=O)c1O [Compound 29] | 0 to 80 | 80 to 100 | 80 to 100 | 80 to 100 | B (More than 0-Less than 80) | B (More than 0-Less than 80)
COc1ccnc(C(=O)N[C@H]2COC[C@H](Cc3ccccc3)[C@@H](OC(=O)c3ccccc3)[C@H](C)OC2=O)c1O [Compound 30] | 0 to 80 | 0 to 80 | 80 to 100 | 0 to 80 | B (More than 0-Less than 80) | –
COc1ccnc(C(=O)N[C@H]2COC[C@H](Cc3ccccc3)[C@@H](OC(=O)C3CC3)[C@H](C)OC2=O)c1O [Compound 31] | 80 to 100 | 80 to 100 | 80 to 100 | 80 to 100 | B (More than 0-Less than 80) | B (More than 0-Less than 80)
COc1ccnc(C(=O)N[C@H]2COC[C@H](Cc3ccccc3)[C@@H](Oc3ccccc3)[C@H](C)OC2=O)c1O [Compound 33] | 80 to 100 | 80 to 100 | 80 to 100 | 80 to 100 | B (More than 0-Less than 80) | –
COc1ccnc(C(=O)N[C@H]2COC[C@H](Cc3ccccc3)[C@@H](OC3CCCCC3)[C@H](C)OC2=O)c1OCOC(C)=O [Compound 35] | 80 to 100 | 80 to 100 | 80 to 100 | 80 to 100 | B (More than 0-Less than 80) | –
COc1ccnc(C(=O)N[C@H]2COC[C@H](Cc3ccccc3)[C@@H](OCCC(C)C)[C@H](C)OC2=O)c1O [Compound 41] | 0 to 80 | 0 to 80 | 80 to 100 | 0 to 80 | B (More than 0-Less than 80) | B (More than 0-Less than 80)
COc1ccnc(C(=O)N[C@H]2COC[C@H](Cc3ccccc3)[C@@H](OCCC(C)C)[C@H](C)OC2=O)c1OCOC(C)=O [Compound 42] | 80 to 100 | 80 to 100 | 80 to 100 | 80 to 100 | B (More than 0-Less than 80) | B (More than 0-Less than 80)
COc1ccnc(C(=O)N[C@H]2COC[C@H](Cc3ccccc3)[C@@H](OCC(F)F)[C@H](C)OC2=O)c1O [Compound 43] | 80 to 100 | 80 to 100 | 80 to 100 | 80 to 100 | A (80-100) | B (More than 0-Less than 80)
COc1ccnc(C(=O)N[C@H]2COC[C@H](Cc3ccccc3)[C@@H](OCCC(C)OC)[C@H](C)OC2=O)c1O (stereo partly shown) [Compound 45] | 80 to 100 | 80 to 100 | 80 to 100 | 80 to 100 | A (80-100) | A (80-100)
COc1ccnc(C(=O)N[C@H]2COC[C@H](Cc3ccccc3)[C@@H](OC3CCCC3)[C@H](C)OC2=O)c1O [Compound 105] | 80 to 100 | 80 to 100 | 80 to 100 | 80 to 100 | – | –
